# Results as given in US8017364B2, “Solvent tolerant microorganisms” (Butamax(TM) Advanced Biofuels LLC, priority 2006, dated 2011).
# Tests used:
# [1] = test system: identified tolerant strains; assay: Expected growth on solid medium, inferred from IC50 values and correlation with 1-butanol tolerance; format: cell-based, Pediococcus
# [2] = test system: Lactococcus lactis overexpressing GroESL; details: GroESL overexpression; equals 0.4% weight/volume (w/v); cited from earlier work
# PN1042 = details: liquid medium, 37° C.
# Protocol: (§1) The growth data was used to calculate the percent growth inhibition caused by 1-butanol by subtracting the percent growth ([…]; where T0OD600 is the initial optical density at the starting time and T5OD600 is the optical density after 5 h) from 100%.
# PN1011 = details: liquid medium, 37° C.
# Protocol: as §1
# [3] = test system: most microorganisms described in the art; details: liquid medium, 37° C.; cited from earlier work
# [4] = test system: Lactobacillus paracasei overexpressing GroESL; details: GroESL overexpression; equals 0.4% weight/volume (w/v); cited from earlier work
smiles,measurement,setting,value
CC(C)CO [isobutanol],concentration in solid medium on which strains are expected to grow,[1],3.5 % w/v
CCCCO [1-butanol],concentration at which strain was able to grow,[2],0.5 % volume/volume (v/v)
same,growth in the presence of 1-butanol,"PN1042; PN1042, 3% (w/v) 1-butanol",low levels of growth
same,percent growth inhibition,"PN1042; PN1042, 3.5% (w/v) 1-butanol, OD600 over 5 h",100%
same,growth in the presence of 1-butanol,"PN1011; PN1011, 3% (w/v) 1-butanol",low levels of growth
same,percent growth inhibition,"PN1011; PN1011, 3.5% (w/v) 1-butanol, OD600 over 5 h",100%
same,concentration at which growth is totally inhibited,[3],less than 2.0 % w/v
same,concentration at which strain was able to grow,[4],0.5 % volume/volume (v/v)
CCC(C)O (stereo not shown) [2-butanol],concentration in solid medium on which strains are expected to grow,[1],4.0 % w/v
CCC(C)=O [2-butanone],concentration in solid medium on which strains are expected to grow,[1],6.0 % w/v
